For 5 molecules, IC50 results are on record in patent US10023558B2, “Compounds” (CHIESI FARMACEUTICI S.P.A., priority 2016, dated 2018).

pIC50: −log10 of the molar value.

The test concerns the target T1, human neutrophil elastase (HNE) (Homo sapiens, UniProt P08246).
T1 construct: purchased Sigma E8140
T1 sequence (P08246 30-247 limits assumed): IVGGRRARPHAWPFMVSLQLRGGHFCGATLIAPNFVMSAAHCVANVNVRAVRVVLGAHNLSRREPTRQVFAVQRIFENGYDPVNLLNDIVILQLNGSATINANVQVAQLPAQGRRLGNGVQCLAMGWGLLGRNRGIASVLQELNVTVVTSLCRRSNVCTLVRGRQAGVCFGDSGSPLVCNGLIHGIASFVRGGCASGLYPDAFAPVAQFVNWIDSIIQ
Put plainly: HNE Enzyme Assay (fluorogenic peptide substrate MeOSuc-Ala-Ala-Pro-Val-AMC). The test is classed as biochemical. Conditions: human leukocyte elastase 0.00072 U/mL, substrate 100 μM, 25° C., 30 minutes, at least two separate experiments; read-out: HNE inhibition (IC50 values). In short, it runs like this: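 Human leukocyte elastase (0.00072 U/mL) with 100 μM MeOSuc-AAPV-AMC in Tris pH 7.5 buffer with NaCl, CaCl2, Brij-35, 1% DMSO, 30 min at 25° C, stopped with soybean trypsin inhibitor. AMC fluorescence (ex 380/em 460 nm); IC50 from concentration-response as % inhibition of control, at least two experiments.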
As a reminder, the pIC50 is the IC50 on a negative log10 scale, so that one unit is a factor of ten. In the case of `Cc1c(-c2ccnn2-c2ccc(C#N)cc2)n(C(=O)N[C@H]2CC[C@H](C(=O)NC3CC[N+](C)(C)CC3)CC2)c(=O)n1-c1cccc(C(F)(F)F)c1` [Example 90, 4-[(Trans-4-{[5-[2-(4-cyano-phenyl)-2H-pyrazol-3-yl]-4-methyl-2-oxo-3-(3-trifluoromethyl-phenyl)-2,3-dihydro-imidazole-1-carbonyl]-amino}-cyclohexanecarbonyl)-amino]-1,1-dimethyl-piperidinium benzene sulfonate], the negative logarithm of the IC50 (pIC50) is over 9.00.
The result for `Cc1c(-c2ccnn2-c2ccc(C#N)cc2)n(C(=O)N[C@@H](C)C(=O)N(C)C2CC[N+](C)(C)CC2)c(=O)n1-c1cccc(C(F)(F)F)c1` [Example 91, 4-[((S)-2-{[5-[2-(4-Cyano-phenyl)-2H-pyrazol-3-yl]-4-methyl-2-oxo-3-(3-trifluoromethyl-phenyl)-2,3-dihydro-imidazole-1-carbonyl]-amino}-propionyl)-methyl-amino]-1,1-dimethyl-piperidinium benzene sulfonate] reads over 9.00; that for `Cc1c(-c2ccnn2-c2ccc(C#N)cc2)n(C(=O)NC2CCN(C(=O)NCC[N+](C)(C)C)CC2)c(=O)n1-c1cccc(C(F)(F)F)c1` [Example 92, {2-[(4-{[5-[2-(4-Cyano-phenyl)-2H-pyrazol-3-yl]-4-methyl-2-oxo-3-(3-trifluoromethyl-phenyl)-2,3-dihydro-imidazole-1-carbonyl]-amino}-piperidine-1-carbonyl)-amino]-ethyl}-trimethyl-ammonium benzene sulfonate], over 9.00.
The result for `Cc1c(-c2ccnn2-c2ccc(C#N)cc2)n(C(=O)NC2CCN(C(=O)OCC[N+](C)(C)C)CC2)c(=O)n1-c1cccc(C(F)(F)F)c1` [Example 93, [2-(4-{[5-[2-(4-Cyano-phenyl)-2H-pyrazol-3-yl]-4-methyl-2-oxo-3-(3-trifluoromethyl-phenyl)-2,3-dihydro-imidazole-1-carbonyl]-amino}-piperidine-1-carbonyloxy)-ethyl]-trimethyl-ammonium benzene sulfonate] reads over 9.00.
Next, `Cc1c(-c2nccn2-c2ccc(C#N)cc2)n(C(=O)NC2CCN(C(=O)C[N+](C)(C)C)CC2)c(=O)n1-c1cccc(C(F)(F)F)c1` [Example 94, [2-(4-{[1-(4-Cyano-phenyl)-5′-methyl-2′-oxo-1′-(3-trifluoromethyl-phenyl)-1′,2′-dihydro-1H-[2,4′]biimidazolyl-3′-carbonyl]-amino}-piperidin-1-yl)-2-oxo-ethyl]-trimethyl-ammonium benzene sulfonate]: over 9.00.
